# Data taken from patent US20240173329A1, “BELVARAFENIB FOR USE IN TREATMENT OF BRAIN CANCERS” (Genentech, Inc., priority 2021, published 2024).
# pIC50: −log10 of the molar value. “Also recorded” adds a separate entry of the source. Read-outs that look alike come from different tables or passages of the source.
# Key:
# BCRP (ABCG2) [1] = molecular target: T1, BCRP (ABCG2) (Homo sapiens, UniProt Q9UNQ0); test: Vesicular transport substrate assay; type: in vitro ADME
# T1 construct: expressed by SOLVO Biotechnology in mammalian (K and M) cells by chemical selection; purchased SOLVO Biotechnology; host or cells: mammalian (K and M) cells, overexpression by chemical selection
# T1 sequence (Q9UNQ0 1-655): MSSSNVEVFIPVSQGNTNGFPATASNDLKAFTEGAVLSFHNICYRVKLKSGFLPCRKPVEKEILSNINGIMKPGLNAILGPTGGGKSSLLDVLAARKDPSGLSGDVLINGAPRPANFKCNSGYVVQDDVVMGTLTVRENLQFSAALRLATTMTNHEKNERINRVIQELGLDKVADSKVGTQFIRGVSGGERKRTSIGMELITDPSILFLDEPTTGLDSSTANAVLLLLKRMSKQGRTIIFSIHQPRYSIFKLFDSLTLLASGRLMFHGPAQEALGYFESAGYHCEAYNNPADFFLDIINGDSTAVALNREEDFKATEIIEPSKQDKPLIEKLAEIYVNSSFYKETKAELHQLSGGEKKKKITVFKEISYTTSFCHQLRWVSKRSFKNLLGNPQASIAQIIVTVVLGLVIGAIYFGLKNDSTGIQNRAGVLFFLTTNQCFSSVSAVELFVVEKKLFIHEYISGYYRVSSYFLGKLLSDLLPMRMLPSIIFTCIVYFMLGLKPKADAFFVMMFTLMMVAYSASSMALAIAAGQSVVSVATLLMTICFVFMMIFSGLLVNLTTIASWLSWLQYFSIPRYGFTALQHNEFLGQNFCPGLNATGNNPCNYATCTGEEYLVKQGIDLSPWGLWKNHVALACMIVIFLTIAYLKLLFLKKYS
# Method: (§1) Stock solutions of belvarafenib 2HCl (10 mM, 1.33 mM, 1 mM and 0.1 mM) were prepared in DMSO. Serial dilutions (7-step, 3-fold) were prepared in DMSO, and used as the test solutions in the inhibition assays (100-fold dilution). The dilution factor in substrate experiments was 100-fold.
# (§2) Instruments used for detection include a Thermo Scientific Dionex UltiMate 3000 series UHPLC (Thermo Scientific, San Jose, CA) with a Thermo Scientific TSQ Quantum Access Max triple quadrupole MS; a Perkin Elmer MicroBeta2liquid scintillation counter (Perkin Elmer, Waltham MA) and a BMG Labtech FluoStar Omega multifunctional microplate reader (BMG Labtech, Offenburg, Germany).
# (§3) Vesicular transport assays were performed with inside-out membrane vesicles prepared from cells overexpressing human ABC transporters. The transporter has been expressed by SOLVO Biotechnology in mammalian (K and M) cells by chemical selection.
# (§4) Experimental method for vesicular transport substrate assay. The uptake of belvarafenib 2HCl into membrane vesicles was determined using inside-out membrane vesicles (total protein: 50 μg/well for MDR1, or 25 μg/well for BCRP) prepared from cells overexpressing BCRP or MDR1 ABC transporters as well as from control cells. Two incubation time points (2 and 20 min) and two concentrations (1 and 10 μM) of belvarafenib 2HCl were tested in the presence of ATP or AMP, to determine whether belvarafenib 2HCl is actively transported into the vesicles. Reaction mixtures as well as start reagents (MgATP and AMP solutions) were pre-incubated for 15 minutes at 32° C. for BCRP, and 37° C. for MDR1 assay. Reactions were initiated by addition of the start reagent (MgATP or AMP) to the appropriate wells. Reactions were quenched by the addition of 200 μL of ice-cold washing buffer and immediate filtration via glass fiber filters mounted to a 96-well plate (filter plate). The filters were washed 5×200 μL of ice-cold washing buffer and dried. The amount of accumulated belvarafenib 2HCl retained inside the vesicles was determined by LC-MS/MS detection after washing the vesicles 2 times with 100 μL MeOH:H2O (2:1).
# (§5) In the vesicular transport substrate assays, the ATP-dependent transport of the TA as well as the ATP-dependent fold accumulation was calculated for each concentration and time point using the following equation, in both the transporter-containing and control vesicles:
# (§6) ATP−dependent transport=nATP−NAMP Fold accumulation=nATP/nAMP
# (§7) nATP is the amount of translocated TA in the presence of 4 mM ATP, in pmol/mg. nAMP is the amount of translocated TA in the presence of 4 mM AMP, in pmol/m. […]
# MDR1 (ABCB1/P-gp) [2] = molecular target: T2, MDR1 (ABCB1/P-gp) (Homo sapiens, UniProt P08183); test: Vesicular transport substrate assay; type: in vitro ADME
# T2 construct: expressed by SOLVO Biotechnology in mammalian (K and M) cells by chemical selection; purchased SOLVO Biotechnology; host or cells: mammalian (K and M) cells, overexpression by chemical selection
# T2 sequence (P08183 whole entry): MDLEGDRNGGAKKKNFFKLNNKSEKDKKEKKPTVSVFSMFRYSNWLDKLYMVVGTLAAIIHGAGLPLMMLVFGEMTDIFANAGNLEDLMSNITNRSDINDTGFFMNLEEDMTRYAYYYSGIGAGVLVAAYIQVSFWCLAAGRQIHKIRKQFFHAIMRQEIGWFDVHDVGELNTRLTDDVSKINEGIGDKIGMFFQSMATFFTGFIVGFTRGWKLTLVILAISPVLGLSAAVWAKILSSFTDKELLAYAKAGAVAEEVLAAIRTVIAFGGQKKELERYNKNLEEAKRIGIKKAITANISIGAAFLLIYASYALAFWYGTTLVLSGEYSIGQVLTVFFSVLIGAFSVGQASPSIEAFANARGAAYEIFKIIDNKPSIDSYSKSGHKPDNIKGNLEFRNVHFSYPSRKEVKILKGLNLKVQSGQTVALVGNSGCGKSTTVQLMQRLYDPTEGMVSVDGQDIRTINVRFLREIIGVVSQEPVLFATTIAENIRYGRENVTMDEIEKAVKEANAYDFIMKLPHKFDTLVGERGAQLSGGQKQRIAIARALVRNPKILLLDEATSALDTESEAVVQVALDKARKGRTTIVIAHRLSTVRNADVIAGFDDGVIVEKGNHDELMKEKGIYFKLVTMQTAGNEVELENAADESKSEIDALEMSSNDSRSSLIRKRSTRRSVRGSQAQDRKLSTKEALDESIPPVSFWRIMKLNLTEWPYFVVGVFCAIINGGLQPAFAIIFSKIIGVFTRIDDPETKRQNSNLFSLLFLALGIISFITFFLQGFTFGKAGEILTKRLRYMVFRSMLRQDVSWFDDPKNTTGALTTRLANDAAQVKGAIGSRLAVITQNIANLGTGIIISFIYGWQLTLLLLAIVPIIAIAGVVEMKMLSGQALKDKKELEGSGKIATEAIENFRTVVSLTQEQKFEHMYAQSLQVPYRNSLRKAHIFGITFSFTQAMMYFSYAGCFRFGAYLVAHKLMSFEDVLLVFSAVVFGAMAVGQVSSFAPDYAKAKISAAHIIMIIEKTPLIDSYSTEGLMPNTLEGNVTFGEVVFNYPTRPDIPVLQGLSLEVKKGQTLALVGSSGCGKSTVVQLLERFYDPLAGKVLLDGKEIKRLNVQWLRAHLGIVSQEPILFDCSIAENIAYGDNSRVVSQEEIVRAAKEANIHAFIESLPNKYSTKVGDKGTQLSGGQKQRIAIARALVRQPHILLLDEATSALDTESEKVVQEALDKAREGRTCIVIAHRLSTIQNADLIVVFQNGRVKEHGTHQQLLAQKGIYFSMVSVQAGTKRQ
# Method: as §1, §2, §3, §4, §5, §6, §7
# BCRP (ABCG2) [3] = molecular target: T1, BCRP (ABCG2); test: Vesicular transport inhibition assay; type: in vitro ADME; settings: BCRP-mediated E3S accumulation
# Method: as §1, §2, §3
# (§8) Parameters of the vesicular transport assays are listed in Table 6 where: “BCRP” refers to breast cancer resistance protein; “MDR1” refers to multidrug resistance protein 1; “E3S” refers to Estrone-3-sulfate; and “NMQ” refers to N-methyl quinidine.
# (§9) Belvarafenib 2HCl was incubated with membrane vesicle preparations (total protein: 50 μg/well for MDR1, and 25 µg/well for BCRP) and the probe substrate. Incubations were carried out in the presence of 4 mM ATP or AMP to distinguish between transporter-mediated uptake and passive diffusion into the vesicles. Belvarafenib 2HCl was added to the reaction mixture in 0.75 μL of solvent ([…] of the final incubation volume). Reaction mixtures were pre-incubated for 15 minutes at 37±1° C. (or 32±1° C. for BCRP). Reactions were initiated by the addition of 25 μL of 12 mM MgATP (or 12 mM AMP in assay buffer as a background control), preincubated separately. Reactions were quenched by the addition of 200 μL of ice-cold washing buffer and immediate filtration via glass fiber filters mounted to a 96-well plate (filter plate). The filters were washed (5×200 μL of ice-cold washing buffer), dried and the amount of substrate inside the filtered vesicles was determined by liquid scintillation counting.
# (§10) The controls were as follows. Incubation with AMP provided background activity values for all data points. Incubation with probe substrate (solvent only) provided 100% activity values. A reference inhibitor served as positive control for inhibition.
# (§11) For all wells the amount of the translocated probe substrate was determined in cpm. Relative activities were calculated using the following equation: Relative Activity %=(A−B)/(C−D)*100. A is the amount of translocated substrate in the presence of TA and ATP. B is the amount of translocated substrate in the presence of TA and AMP. C is the amount of translocated substrate in the presence of solvent and ATP. D is the amount of translocated substrate in the presence of solvent and AMP.
# (§12) Microsoft Excel 2010 (Microsoft Corporation, Redmond, WA) was used for basic data processing and GraphPad Prism 5.0 (GraphPad Software Inc., San Diego, CA) was used for curve fitting and determination of reaction parameters. In vesicular transport inhibition assays, the IC50 (μM) was calculated, where applicable. IC50 was defined as the concentration of TA required to inhibit maximal activity by 50%. IC50 values were derived from a four parametric logistic equation [log(inhibitor) vs. response−variable slope]; the curve was fitted to the relative activity vs. TA concentration plot using non-linear regression.
# MDR1 (ABCB1/P-gp) [4] = molecular target: T2, MDR1 (ABCB1/P-gp); test: Vesicular transport inhibition assay; type: in vitro ADME; settings: MDR1-mediated NMQ accumulation
# Method: as §1, §2, §3, §8, §9, §10, §11, §12
# [5] = concentration-independent; cited from earlier work
# [6] = healthy subjects; cited from earlier work
# P-gp/BCRP = settings: literature, cited from earlier work
# [7] = system: human tumor xenograft models; settings: highest doses tested; cited from earlier work
# [8] = system: patients who harbored a BRAF, NRAS, or KRAS mutation; settings: cited from earlier work
# [9] = cited from earlier work; for B/P (nonclinical), percentage of brain exposure relative to plasma: mice, literature
# [10] = Stage III of Study MEK4592g, 18 patients
# [11] = cobimetinib single agent, Study MEK4592g
smiles,measurement,setting,value
Cc1ccc2c(Nc3cccc(Cl)c3F)nccc2c1NC(=O)c1csc2c(N)ncnc12 [belvarafenib 2HCl],Maximum ATP dependent fold accumulation in transporter expressing vesicles,"BCRP (ABCG2) [1]; 1 and 10 μM, 2 and 20 min",1.51
same,Substrate,BCRP (ABCG2) [1]; BCRP VT,probably not a substrate; also recorded: Unlikely
same,Maximum ATP dependent fold accumulation in transporter expressing vesicles,"MDR1 (ABCB1/P-gp) [2]; 1 and 10 μM, 2 and 20 min",1.23
same,Substrate,MDR1 (ABCB1/P-gp) [2]; MDR1 VT,probably not a substrate; also recorded: Unlikely
same,Maximum inhibition (% of control),BCRP (ABCG2) [3]; 0.02-13.3 μM,99.8%
same,pIC50,"BCRP (ABCG2) [3]; estimated, top of the curve constrained at 100%",7.96
same,inhibition at 0.02 µM,"BCRP (ABCG2) [3]; human, probe estrone-3-sulfate (E3S), 0.02 μM, read-out: inhibition at the lowest investigated concentration",70%
same,pIC50,"MDR1 (ABCB1/P-gp) [4]; estimated, bottom constrain (0%), inhibition did not reach 50%",4.53
same,inhibition at 13.3 µM,"MDR1 (ABCB1/P-gp) [4]; human, probe N-methyl quinidine (NMQ), highest applied concentration (13.3 μM), read-out: Maximum inhibition (% of control)",32%
O=C(c1ccc(F)c(F)c1Nc1ccc(I)cc1F)N1CC(O)([C@@H]2CCCCN2)C1 [Cobimetinib],binding to plasma proteins,[5],95%
same,"food effect on pharmacokinetics, fed state compared with fasted state",[6],not altered
same,P-gp/BCRP efflux substrate?,P-gp/BCRP,Yes (P-gp)
same,tumor regression,[7],up to 100%
same,patients with SD as best overall response,[8]; [10],22.2%
same,patients with unconfirmed tumor responses,[8]; [10],11.1%
same,patients with confirmed partial response (PR),[8]; [11],6.2%
same,patients with progressive disease,[8]; [11],41.2%
same,"B/P (nonclinical), percentage of brain exposure relative to plasma",[9],30%
C[C@@H](NC(=O)c1ncnc(N)c1Cl)c1ncc(C(=O)Nc2cc(C(F)(F)F)c(Cl)cn2)s1 [DAY101],P-gp/BCRP efflux substrate?,P-gp/BCRP,Yes (BCRP)
same,"B/P (nonclinical), percentage of brain exposure relative to plasma",[9],20-34% ^
CC(=O)Nc1cccc(-n2c(=O)n(C3CC3)c(=O)c3c(Nc4ccc(I)cc4F)n(C)c(=O)c(C)c32)c1 [Trametinib],P-gp/BCRP efflux substrate?,P-gp/BCRP,Yes (P-gp + BCRP)
same,"B/P (nonclinical), percentage of brain exposure relative to plasma",[9],15%
CCCS(=O)(=O)Nc1ccc(F)c(C(=O)c2c[nH]c3ncc(-c4ccc(Cl)cc4)cc23)c1F [Vemurafenib],P-gp/BCRP efflux substrate?,P-gp/BCRP,Yes (P-gp + BCRP)
same,P-gp/BCRP efflux substrate?,P-gp/BCRP; listed as vemurafenib,is a P-gp and a BCRP efflux substrate
same,"B/P (nonclinical), percentage of brain exposure relative to plasma",[9],0.4-1% ^
CC(C)(C)c1nc(-c2cccc(NS(=O)(=O)c3c(F)cccc3F)c2F)c(-c2ccnc(N)n2)s1 [Dabrafenib],P-gp/BCRP efflux substrate?,P-gp/BCRP,Yes (P-gp + BCRP)
same,P-gp/BCRP efflux substrate?,P-gp/BCRP; listed as dabrafenib,is a P-gp and a BCRP efflux substrate
same,"B/P (nonclinical), percentage of brain exposure relative to plasma",[9],2-4%
COC(=O)N[C@@H](C)CNc1nccc(-c2cn(C(C)C)nc2-c2cc(Cl)cc(NS(C)(=O)=O)c2F)n1 [Encorafenib],P-gp/BCRP efflux substrate?,P-gp/BCRP,Yes (P-gp + BCRP)
same,P-gp/BCRP efflux substrate?,P-gp/BCRP; listed as encorafenib,is a P-gp and a BCRP efflux substrate
same,brain to plasma ratio,[9]; literature values,about 0.004
same,"B/P (nonclinical), percentage of brain exposure relative to plasma",[9],0.4%
Cn1cnc2c(F)c(Nc3ccc(Br)cc3Cl)c(C(=O)NOCCO)cc21 [Selumetinib],P-gp/BCRP efflux substrate?,P-gp/BCRP,Yes (P-gp + BCRP)
same,"B/P (nonclinical), percentage of brain exposure relative to plasma",[9],2%
